Laboratory results as given in ChEMBL document CHEMBL1201862, “PubChem BioAssay data set” (2004).
Active and inactive are the calls of the source. Rule as the data show it, for most assays here: actives have a measured EC50 and inactives only a lower limit.

Experiments:
[1] = target: T1, RNA-binding protein pos-1 (Caenorhabditis elegans, UniProt G5EF15); experiment: disruptors of C. elegans POS-1 RNA interaction – biochemical, fluorescence polarization, dose response (AID 1964);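 also: purified POS-1 fused to maltose binding protein made in E. coli; potency of compounds blocking POS-1 binding to fluorescent RNA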
T1 sequence (G5EF15 whole entry): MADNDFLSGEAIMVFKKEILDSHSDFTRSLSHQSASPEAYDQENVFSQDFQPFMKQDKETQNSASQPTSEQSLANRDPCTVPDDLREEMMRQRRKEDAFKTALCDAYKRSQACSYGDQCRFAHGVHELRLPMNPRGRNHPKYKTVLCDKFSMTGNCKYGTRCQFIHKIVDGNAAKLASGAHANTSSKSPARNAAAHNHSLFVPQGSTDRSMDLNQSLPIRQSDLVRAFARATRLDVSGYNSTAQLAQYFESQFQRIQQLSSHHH

[2] = Luminescence Cell-Based Dose Response HTS to Identify Inhibitors of 5'UTR Stem-Loop Driven Prion Protein mRNA Translation in H4 Neuroglioblastoma Cells. [Related pubchem assays: 1827 (Project Summary), 1813 (Primary HTS)]; format: functional
[3] = system: Streptococcus; experiment: GAS UMAA2166 growth inhibition – luminescence, BacTiterGlo, counter-screen for streptokinase expression inhibitor project, dose response (AID 1915); format: functional, organism-based;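 also: potency for reduction of bacterial viability or growth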
[4] = system: Streptococcus sp. 'group A'; experiment: Streptococcus pyogenes SK(-)GAS viability under kanamycin – luminescence, BacTiterGlo, confirmation, counter-screen for streptokinase expression inhibitor project, dose response (AID 1900); format: functional, organism-based
[5] = Luminescence Cell-Based Dose Retest to Confirm Inhibitors of Cancer Stem Cells. [Related pubchem assays (depositor defined):AID2717, AID2721]; format: functional, Homo sapiens
[6] = alpha-synuclein stem-loop luciferase translation blockers – H4 neuroglioma cells, luminescence, confirmation (AID 1988); format: functional, cell-based
[7] = luciferase reporter signal suppression in cells – H4 neuroglioma cells, luminescence, dose response (AID 1990); format: functional, cell-based
[8] = target: T2, Heat shock factor protein 1 (Mus musculus, UniProt P38532); experiment: enhancement of HSF1-driven luciferase signal – cell-based, NIH3T3, luminescence, dose retest, confirmation (AID 435004); format: functional;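 also: stress induced by proteasome inhibitor MG132 added 30 min after compound; luciferase reporter driven by HSF1 response element in NIH3T3 cells; actives raise luminescence as potentiators of the MG132 stress response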
T2 sequence (P38532 whole entry): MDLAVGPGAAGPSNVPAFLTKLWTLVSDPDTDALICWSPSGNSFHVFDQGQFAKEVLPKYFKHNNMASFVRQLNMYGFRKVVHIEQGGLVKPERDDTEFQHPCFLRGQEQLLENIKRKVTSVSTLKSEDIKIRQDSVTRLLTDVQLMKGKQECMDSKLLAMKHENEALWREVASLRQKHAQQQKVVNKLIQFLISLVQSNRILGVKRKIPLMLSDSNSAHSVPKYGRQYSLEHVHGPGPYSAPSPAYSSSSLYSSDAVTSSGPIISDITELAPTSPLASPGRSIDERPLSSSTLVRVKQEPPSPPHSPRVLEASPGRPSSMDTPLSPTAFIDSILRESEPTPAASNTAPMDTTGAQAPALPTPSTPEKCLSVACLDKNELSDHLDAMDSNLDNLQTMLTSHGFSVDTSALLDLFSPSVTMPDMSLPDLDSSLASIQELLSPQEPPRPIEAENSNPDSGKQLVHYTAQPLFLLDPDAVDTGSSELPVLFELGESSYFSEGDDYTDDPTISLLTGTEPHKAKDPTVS

[9] = Trypanosoma cruzi growth suppression in host cells – NIH3T3 host cells, beta-gal luminescence, confirmation (AID 2044); format: functional, cell-based;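 also: intracellular parasites grown in NIH/3T3 mouse fibroblasts as host cells; luminescent beta-galactosidase reporter signal from transgenic T. cruzi replicating inside host cells; inhibitors lower the luminescence signal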
[10] = NIH3T3 cell viability loss – ATP luminescence, mouse fibroblasts, counter-screen, dose response (AID 2010); format: functional, cell-based;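 also: cells exposed to compound for about 90 hours before reading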
[11] = target: T3, Streptokinase A (Streptococcus pyogenes serotype M1, UniProt P10520); experiment: viability-normalized secreted streptokinase activity reduction – plasminogen activation absorbance, OD405, dose response (AID 1914); format: functional, Streptococcus pyogenes M1 GAS;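 also: secreted streptokinase activity via plasminogen activation per viability signal from cell pellet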
T3 sequence (P10520 whole entry): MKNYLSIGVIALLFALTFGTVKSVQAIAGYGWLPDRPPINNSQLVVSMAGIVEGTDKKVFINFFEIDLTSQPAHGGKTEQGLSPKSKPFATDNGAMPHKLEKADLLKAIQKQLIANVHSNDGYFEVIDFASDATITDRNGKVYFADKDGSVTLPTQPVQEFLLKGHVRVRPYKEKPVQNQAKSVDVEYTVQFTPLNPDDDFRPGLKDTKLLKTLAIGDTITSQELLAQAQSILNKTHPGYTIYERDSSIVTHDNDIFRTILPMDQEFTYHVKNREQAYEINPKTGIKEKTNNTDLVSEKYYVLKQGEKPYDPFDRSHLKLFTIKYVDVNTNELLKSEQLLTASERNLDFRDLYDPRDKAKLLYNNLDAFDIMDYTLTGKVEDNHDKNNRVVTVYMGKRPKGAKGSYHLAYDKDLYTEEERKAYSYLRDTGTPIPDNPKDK

[12] = target: T4, Replicative DNA helicase DnaB (Mycobacterium tuberculosis, UniProt P9WMR3); experiment: DnaB intein splicing inhibitors, dose response, biochemical, cell-free fluorescence (AID 449749); format: functional
T4 sequence (P9WMR3 whole entry): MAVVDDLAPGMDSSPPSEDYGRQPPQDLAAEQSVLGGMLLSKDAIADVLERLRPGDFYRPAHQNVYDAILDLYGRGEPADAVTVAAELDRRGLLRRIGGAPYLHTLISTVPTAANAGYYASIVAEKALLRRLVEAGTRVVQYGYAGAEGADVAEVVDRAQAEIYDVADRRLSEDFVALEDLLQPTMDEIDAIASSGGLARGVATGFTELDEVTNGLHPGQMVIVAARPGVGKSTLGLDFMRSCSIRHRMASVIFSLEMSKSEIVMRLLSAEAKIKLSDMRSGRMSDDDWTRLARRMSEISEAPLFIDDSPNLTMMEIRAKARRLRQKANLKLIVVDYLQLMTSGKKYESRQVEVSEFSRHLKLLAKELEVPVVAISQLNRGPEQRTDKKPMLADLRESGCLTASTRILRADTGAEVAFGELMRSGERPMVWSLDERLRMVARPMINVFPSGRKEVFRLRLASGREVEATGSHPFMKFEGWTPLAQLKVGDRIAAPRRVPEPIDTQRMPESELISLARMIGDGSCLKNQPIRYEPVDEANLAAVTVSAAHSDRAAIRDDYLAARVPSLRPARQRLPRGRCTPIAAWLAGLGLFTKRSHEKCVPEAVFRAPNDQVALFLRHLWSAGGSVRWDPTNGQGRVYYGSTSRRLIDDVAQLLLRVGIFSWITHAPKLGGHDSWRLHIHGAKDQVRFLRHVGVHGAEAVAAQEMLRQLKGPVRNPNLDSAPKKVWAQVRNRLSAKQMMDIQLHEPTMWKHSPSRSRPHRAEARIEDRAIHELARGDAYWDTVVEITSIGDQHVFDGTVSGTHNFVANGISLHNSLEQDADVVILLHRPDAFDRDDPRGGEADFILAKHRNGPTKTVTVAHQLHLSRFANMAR

[13] = target: T5, Protein RecA (Mycobacterium tuberculosis, UniProt P9WHJ3); experiment: Fluorescence Cell-Free Homogeneous Dose Retest to Identify Inhibitors of RecA-Intein Splicing Activity. [Related pubchem assays (depositor defined):AID2097, AID2223, AID489010, AID492950]; format: functional
T5 sequence (P9WHJ3 whole entry): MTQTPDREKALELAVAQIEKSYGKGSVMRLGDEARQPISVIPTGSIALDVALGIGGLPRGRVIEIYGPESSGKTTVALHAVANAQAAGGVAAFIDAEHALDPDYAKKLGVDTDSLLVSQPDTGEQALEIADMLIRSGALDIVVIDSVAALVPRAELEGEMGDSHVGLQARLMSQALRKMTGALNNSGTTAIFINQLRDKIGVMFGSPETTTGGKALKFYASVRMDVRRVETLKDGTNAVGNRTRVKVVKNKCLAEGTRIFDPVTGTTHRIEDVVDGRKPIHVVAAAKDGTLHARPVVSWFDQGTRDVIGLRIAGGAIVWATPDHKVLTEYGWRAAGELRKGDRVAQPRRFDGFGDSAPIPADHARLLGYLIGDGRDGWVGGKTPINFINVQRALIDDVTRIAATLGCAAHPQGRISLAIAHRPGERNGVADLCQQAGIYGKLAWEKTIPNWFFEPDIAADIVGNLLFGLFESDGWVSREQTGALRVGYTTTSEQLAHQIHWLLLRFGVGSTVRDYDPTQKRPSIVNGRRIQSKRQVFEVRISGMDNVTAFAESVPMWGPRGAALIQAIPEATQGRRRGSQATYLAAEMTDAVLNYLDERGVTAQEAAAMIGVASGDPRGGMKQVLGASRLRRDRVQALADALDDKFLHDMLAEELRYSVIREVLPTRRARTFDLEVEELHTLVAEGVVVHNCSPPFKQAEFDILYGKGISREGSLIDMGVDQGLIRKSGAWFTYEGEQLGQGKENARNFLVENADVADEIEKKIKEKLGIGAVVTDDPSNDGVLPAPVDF

| Structure (SMILES) | EC50 [2] | EC50 [6] | EC50 [7] | further results |
| --- | --- | --- | --- | --- |
| CCN(CC)c1ccc(N/C=C2/C(=O)NC(=O)N(Cc3ccccc3)C2=O)cc1 |  |  |  | EC50 [1]: > 300 µM (not active) |
| Cc1cn(-c2cc(C(=O)Nc3ccc(C)c(NC(=O)C(=O)c4c[nH]c5ccccc45)c3)cc(C(F)(F)F)c2)cn1 | 23 µM (active) |  |  | EC50 [3]: 3.39 µM (active); EC50 [4]: 2.38 µM (active); AC50 ([5]; Homo sapiens): 2.18 µM (active) |
| O=c1cc(N2CCCCC2)c(-c2ccccc2)nn1Cc1c(Cl)cccc1Cl | > 120 µM (not active) | > 120 µM (not active) | 14.8 µM (active) | EC50 [3]: 5.18 µM (active); EC50 [4]: 5.65 µM (active); AC50 ([5]; Homo sapiens): 4.43 µM (active) |
| O=c1c([N+](=O)[O-])c[nH]c2nc(-c3ccncc3)nn12 | 14.2 µM (active) | > 120 µM (not active) | 15.8 µM (active) |  |
| Clc1cccc(CN2CCN(Cc3nc(CCc4ccccc4)no3)CC2)c1 | 32.3 µM (active) | > 120 µM (not active) | > 120 µM (not active) | EC50 [8]: > 260 µM (inactive) |
| Cc1cccc(C)c1NC(=O)COC(=O)c1cccc2c1C(=O)c1ccccc1C2=O | 13.3 µM (active) | > 120 µM (not active) | 13.9 µM (active) | EC50 [8]: 30.8 µM (active) |
| Cc1ccc(S(=O)(=O)N(C)CC(=O)N/N=C/c2ccc(C)o2)cc1 | > 120 µM (not active) | > 120 µM (not active) | > 120 µM (not active) |  |
| NC(=O)c1sc2nc3c(c(-c4ccc(Cl)cc4)c2c1N)CCCC3 | > 120 µM (not active) | 12.3 µM (active) | 12.5 µM (active) |  |
| COC(=O)C1CCN(C(=O)COC(=O)Cc2c[nH]c3ccccc23)CC1 | > 120 µM (not active) | > 120 µM (not active) | > 120 µM (not active) |  |
| O=C(NCCc1c[nH]c2ccccc12)C1CCC(Cn2c(=S)[nH]c3ccccc3c2=O)CC1 (stereo not given) | > 120 µM (not active) | 32.1 µM (active) | 16.9 µM (active) | EC50 [9]: 1.07 µM (active); EC50 [10]: > 60 µM (not active); AC50 ([5]; Homo sapiens): 0.582 µM (active) |
| O=C(CC12CC3CC(CC(C3)C1)C2)NC(=S)NCc1ccccc1 | 18.4 µM (active) | 16.8 µM (active) | 13.1 µM (active) |  |
| N=C(N)c1ccc(OCCCCCOc2ccc(C(=N)N)cc2)cc1 | 10.9 µM (active) | 9.9 µM (active) | 11.5 µM (active) | EC50 [11]: 27.9 µM (active); EC50 [3]: < 0.06 µM (active); EC50 [4]: < 0.06 µM (active) |
| Cc1cc(C)c2c(N)c(C(=O)c3ccc(Cl)cc3Cl)sc2n1 | 19.4 µM (active) | 13.8 µM (active) | 12.2 µM (active) |  |
| O=C(Cn1cnc2c(cnn2-c2ccc(Cl)cc2)c1=O)N1CCN(c2ccccc2)CC1 | 12 µM (active) | 18.4 µM (active) | 15.8 µM (active) |  |
| O=[N+]([O-])c1ccc(OCc2cn([C@@H](CO)c3ccccc3)nn2)c(Br)c1 | > 120 µM (not active) | > 120 µM (not active) | > 120 µM (not active) |  |
| Cc1ccc(N2CC(C(=O)Nc3nnc(SCC(=O)Nc4cc(C)on4)s3)CC2=O)cc1 (stereo not given) | > 120 µM (not active) | > 120 µM (not active) | > 120 µM (not active) |  |
| CC1CCc2nc(NCCO)nc(C(F)(F)F)c2C1 (stereo not given) | 26.1 µM (active) | > 120 µM (not active) | 12.5 µM (active) |  |
| CCN(CC)CCOc1ccc(/C(=C(/Cl)c2ccccc2)c2ccccc2)cc1 [CLOMIPHENE] |  |  |  | EC50 [8]: 129 µM (active); AC50 [12]: 4.34 µM (active); AC50 [5]: 1.35 µM (active); EC50 [13]: 12.4 µM (active) |
